Experimental data taken from publication PMC7029632, “Routing Nanomolar Protein Cargoes to Lipid Raft‐Mediated/Caveolar Endocytosis through a Ganglioside GM1‐Specific Recognition Tag” (Advanced Science, 2020).

What was measured:
HeLa cells = assay: Flow cytometry (FACS) uptake of NA constructs and fluorescently labeled sequences, HeLa; conditions: 1 µM cargo, 1 h, 37 °C, MEM+1% FBS, trypan blue quencher, triplicate
ganglioside GM1 = assay: ITC titration with GM1:DPC 1:5 bicelles; conditions: two-independent-binding-site model, pH 7.2 phosphate, 35 °C, read-out: K D toward GM1 (tagged NeutrAvidin)
Jurkat cells = assay: Uptake in competition with galectin-1, flow cytometry; assay type: cell-based, human; conditions: only at concentrations orders of magnitude higher than serum galectin-1 level (6.7 nM)
[1] = cited from earlier work
Description: Helenius and Pelkmans pointed out that multivalent binding/clustering of ganglioside GM1 is necessary to trigger lipid raft‐mediated/caveolar endocytosis,9 and the tetravalent nature of our model carrier–cargo complex is consistent with this observation. On the other hand, the number of copies of the carrier sequence required for endocytosis can be crucial, especially if the carrier–cargo complex is produced by recombinant synthesis. […] CFU‐Penetratin, which has ...

Substance	level of uptake by FACS (HeLa cells)	Kd (ganglioside GM1)	inhibition of GM1–WYKYW interaction by galectin-1 (Jurkat cells)	affinity for terminal digalactosides [1]
NA(biotinyl‐PEG‐WYKYW)4 [tetravalent FITC-labeled NeutrAvidin construct with biotinyl-PEG-WYKYW]	similar	14.5 ± 1.7 nM		
galectin‐1: protein binding terminal digalactosides, used as inhibitor			competitive inhibitor of the GM1–WYKYW interaction	micromolar affinity
